These results are taken from ChEMBL document CHEMBL1134062, “Spirocyclic nonpeptide glycoprotein IIb-IIIa antagonists. Part 2: design of potent antagonists containing the 3-azaspiro[5.5]undecanes” (Bioorg Med Chem Lett, 2001).

Each structure is given as a SMILES string.

The term IC50 denotes the concentration that gives 50% inhibition.

The species entered for one assay is Homo sapiens. Description: In vitro ability to inhibit the aggregation of ADP-stimulated human platelets. The format is functional.
Assay [1] deals with Integrin alpha-IIb/beta-3 (Homo sapiens, UniProt P05106+P08514). In words: In vitro inhibitory activity against blockage of binding of fibrinogen to purified human GPIIbIIIa. The format is protein-complex assay.
Integrin alpha-IIb/beta-3, sequence (P05106 27-788 limits assumed): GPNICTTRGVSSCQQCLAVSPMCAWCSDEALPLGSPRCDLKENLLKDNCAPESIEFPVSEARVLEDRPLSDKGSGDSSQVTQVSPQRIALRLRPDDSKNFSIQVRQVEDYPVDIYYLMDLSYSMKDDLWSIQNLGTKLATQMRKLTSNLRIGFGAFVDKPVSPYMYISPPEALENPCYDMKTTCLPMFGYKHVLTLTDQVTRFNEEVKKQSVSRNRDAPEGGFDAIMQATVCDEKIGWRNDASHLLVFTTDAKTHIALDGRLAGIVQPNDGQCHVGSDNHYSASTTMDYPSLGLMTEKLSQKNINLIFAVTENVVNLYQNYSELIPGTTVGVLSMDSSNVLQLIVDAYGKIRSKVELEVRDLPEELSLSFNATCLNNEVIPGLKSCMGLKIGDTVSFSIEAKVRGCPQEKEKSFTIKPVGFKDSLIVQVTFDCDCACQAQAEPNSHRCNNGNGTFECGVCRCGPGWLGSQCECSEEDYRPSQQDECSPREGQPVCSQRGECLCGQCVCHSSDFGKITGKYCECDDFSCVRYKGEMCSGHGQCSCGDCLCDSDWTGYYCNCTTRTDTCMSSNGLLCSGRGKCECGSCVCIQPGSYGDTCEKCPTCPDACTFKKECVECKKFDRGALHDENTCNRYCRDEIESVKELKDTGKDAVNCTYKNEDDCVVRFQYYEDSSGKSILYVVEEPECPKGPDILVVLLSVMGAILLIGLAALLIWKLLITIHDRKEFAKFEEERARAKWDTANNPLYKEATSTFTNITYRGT
Integrin alpha-IIb/beta-3, sequence (P08514 32-887 limits assumed): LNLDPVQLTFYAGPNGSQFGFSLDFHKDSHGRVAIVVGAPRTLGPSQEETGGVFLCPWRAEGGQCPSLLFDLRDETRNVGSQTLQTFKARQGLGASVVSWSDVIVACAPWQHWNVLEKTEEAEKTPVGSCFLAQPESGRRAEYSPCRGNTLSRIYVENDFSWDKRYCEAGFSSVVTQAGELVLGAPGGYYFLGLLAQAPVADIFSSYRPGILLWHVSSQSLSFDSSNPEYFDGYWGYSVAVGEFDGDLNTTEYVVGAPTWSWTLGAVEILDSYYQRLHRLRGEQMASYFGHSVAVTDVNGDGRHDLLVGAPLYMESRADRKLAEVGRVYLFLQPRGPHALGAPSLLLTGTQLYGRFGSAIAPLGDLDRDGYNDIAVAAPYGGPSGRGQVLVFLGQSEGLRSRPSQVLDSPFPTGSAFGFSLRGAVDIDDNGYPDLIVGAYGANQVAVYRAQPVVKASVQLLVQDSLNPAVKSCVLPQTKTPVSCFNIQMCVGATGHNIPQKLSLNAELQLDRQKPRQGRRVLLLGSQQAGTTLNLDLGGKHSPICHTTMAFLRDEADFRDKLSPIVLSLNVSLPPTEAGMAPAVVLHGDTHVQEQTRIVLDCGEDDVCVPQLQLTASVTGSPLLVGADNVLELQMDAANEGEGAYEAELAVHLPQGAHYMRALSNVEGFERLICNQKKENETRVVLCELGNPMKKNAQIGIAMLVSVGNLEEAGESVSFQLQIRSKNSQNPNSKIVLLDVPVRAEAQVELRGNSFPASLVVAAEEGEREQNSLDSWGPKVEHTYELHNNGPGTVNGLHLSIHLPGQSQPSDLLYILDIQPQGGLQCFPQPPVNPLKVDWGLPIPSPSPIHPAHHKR
Integrin alpha-IIb/beta-3, sequence (P08514 891-1039 limits assumed): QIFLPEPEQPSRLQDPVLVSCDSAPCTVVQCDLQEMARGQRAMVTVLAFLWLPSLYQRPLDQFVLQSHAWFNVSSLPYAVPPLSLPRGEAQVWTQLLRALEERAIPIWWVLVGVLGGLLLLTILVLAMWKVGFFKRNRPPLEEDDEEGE

As for `CCCCOC(=O)N[C@@H](CNC(=O)C1CCC2(CC1)CCN(c1ccncc1)CC2)C(=O)O`, the IC50 in the assay listed under Homo sapiens was determined as 1300 nM; in assay [1] it was 8 nM.

As to `Cc1noc(C)c1S(=O)(=O)N[C@@H](CNC(=O)C1CCC2(CC1)CCN(c1ccncc1)CC2)C(=O)O`, the IC50 in the assay filed under Homo sapiens was found to be 40 nM.

In the assay listed under Homo sapiens, `CCCCS(=O)(=O)N[C@@H](CNC(=O)C1CCC2(CC1)CCN(c1ccncc1)CC2)C(=O)O` had a half-inhibitory concentration (IC50) of 179 nM.

Take `O=C(O)CCC(=O)N1CCC2(CCC(C(=O)N3CCC(C4CCNCC4)CC3)CC2)CC1`: the results for the IC50 (in the assay listed under Homo sapiens; in assay [1]) were 50000 nM and 100000 nM, respectively.

On to `O=C(N[C@@H](CNC(=O)C1CCC2(CC1)CCN(c1ccncc1)CC2)C(=O)O)OCc1ccccc1`, for which the IC50 stood at 2700 nM in the assay listed under Homo sapiens and 2 nM in assay [1].

Consider `N[C@@H](CNC(=O)C1CCC2(CC1)CCN(c1ccncc1)CC2)C(=O)O`, for which the IC50 in the assay filed under Homo sapiens came out at 12200 nM; in assay [1], 830 nM.

With `O=C(O)CN1CCC2(CCC(C(=O)N3CCC(C4CCNCC4)CC3)CC2)CC1`, the 50% inhibitory concentration (IC50) amounted to 289 nM in the assay listed under Homo sapiens and 250 nM in assay [1].

The compound `N=C(N)c1ccc(C(=O)N2CCC3(CCC(C(=O)NCC(=O)O)CC3)CC2)cc1` displayed an IC50 in the assay listed under Homo sapiens of 38500 nM.

In the case of `CC(CNC(=O)C1CCC2(CC1)CCN(c1ccncc1)CC2)CC(=O)O` (stereo not drawn), the values for the IC50 (in the assay listed under Homo sapiens; in assay [1]) were 4000 nM and 332 nM, respectively.

Consider `N=C(N)c1ccc(C(=O)N2CCC3(CCC(C(=O)O)CC3)CC2)cc1`, for which the concentration for half-maximal inhibition (IC50) in the assay listed under Homo sapiens was 19700 nM; in assay [1], 15000 nM.

For the compound `O=C(O)CCCNC(=O)C1CCC2(CC1)CCN(c1ccncc1)CC2`, the IC50 in the assay filed under Homo sapiens was 12000 nM; in assay [1], 319 nM.

Turning to `N=C(N)c1ccc(N2CCC3(CCC(C(=O)NCCCC(=O)O)CC3)CC2)cc1`, the IC50 stood at 37100 nM in the assay listed under Homo sapiens and 5000 nM in assay [1].

Take `O=C(O)CCCC(=O)N1CCC2(CCC(C(=O)N3CCC(C4CCNCC4)CC3)CC2)CC1`: the IC50 in the assay listed under Homo sapiens worked out at 50000 nM; in assay [1] it was 100000 nM.

On to `O=C(O)CNC1CCC2(CC1)CCN(c1ccncc1)CC2`, for which the IC50 in the assay listed under Homo sapiens was found to be 890 nM; in assay [1], 160 nM.

In the case of `O=C(O)CN1CCC2(CCC(C(=O)N3CCN(c4ccncc4)CC3)CC2)CC1`, the IC50 in the assay filed under Homo sapiens stood at 117 nM; in assay [1], 364 nM.

With `C[C@@H](CC(=O)O)NC(=O)C1CCC2(CC1)CCN(c1ccncc1)CC2`, the IC50 is 14300 nM in the assay listed under Homo sapiens and 616 nM in assay [1].

As for `O=C(O)CCN1CCC2(CCC(C(=O)N3CCN(c4ccncc4)CC3)CC2)CC1`, the IC50 came out at 7900 nM in the assay listed under Homo sapiens and 3450 nM in assay [1].

In the case of `N=C(N)c1ccc(N2CCC3(CCC(C(=O)NCCC(=O)O)CC3)CC2)cc1`, the IC50 in the assay listed under Homo sapiens was 5500 nM; in assay [1] it was 60 nM.

For `O=C(O)COC1CCC2(CC1)CCN(c1ccncc1)CC2`, the IC50 in the assay filed under Homo sapiens came to 1100 nM; in assay [1], 250 nM.

Turning to `O=C(O)CCNC1CCC2(CC1)CCN(c1ccncc1)CC2`, half-maximal inhibition in the assay filed under Homo sapiens (IC50) was put at 4500 nM.

Regarding `Cc1ccc(S(=O)(=O)N[C@@H](CNC(=O)C2CCC3(CC2)CCN(c2ccncc2)CC3)C(=O)O)cc1`, in the assay filed under Homo sapiens, the IC50 stood at 177 nM.

`O=C(O)C[C@@H](NC(=O)C1CCC2(CC1)CCN(c1ccncc1)CC2)c1ccccc1` came in with an IC50 in the assay filed under Homo sapiens of 77000 nM.
